In patent US11352350B2, “IRAK degraders and uses thereof” (Kymera Therapeutics, Inc., priority 2018, dated 2022):

Experiments:
[1] = molecular target: T1, IRAK4 (Homo sapiens (Human), UniProt Q9NWZ3); test: IRAK4 degradation in human whole blood monocyte - flow cytometry; assay type: cell-based; details: read-out: IRAK4 degradation in whole blood monocyte-Flow cytometry: Average external Abs IC50
Method: (§1) Human whole blood IRAK4 degradation flow assay. Whole blood was collected in heparinized tubes and plated on the same day as draw (day 0). Whole blood was aliquoted into deep well plates. Compound plates were prepared and a 10 point, 5-fold dilution was performed with a final DMSO concentration of 0.1%. Compound was added to whole blood deep well plate, sealed and incubated at 37° C., 5% CO2 for 20 hours (for 4 hour treatment, compounds were prepared and added the following day). Following the treatment incubation period (day 1), BD lyse fix (BD #558049) was added to the whole blood plate, placed on plate shaker for 30 seconds and incubated for 10 mins at room temperature. Whole blood was then spun down and washed two times with PBS/0.5% BSA, aspirated to pellet and placed into −80° C. freezer until further processing for flow. On the flow run day, whole blood plates were thawed and samples were transferred to PCR plates. The pre-perm staining cocktail (CD3 Ax488/CD8 BUV805/CD14 BUV395/CD16/56 BV711/CD19 BV785) was added to samples and incubated for 30 minutes at room temperature. Samples were washed two times and permeabilized with Methanol for 10 minutes at 4° C. Samples were washed two times and the post-perm staining cocktail (CD4 PE/IRAK4 Ax647 BD #560315) was added and incubated for 30 minutes at room temperature. Samples were washed two times with PBS/BSA and run on a BD LSRFortessa. Mononuclear cells are gated by SSCH/FSCH and single cells. Monocytes are then gated through CD14 positive gate and lymphocytes are gated through CD14 negative gate. To determine absolute DC50 and max degradation values, MFI values were normalized to DMSO max and 20 hour 10 μM min control. Twenty hour dose curves were calculated using a 4 parameter logistic regression curve fit, no constraints (Top doses were removed if hook effects were observed and the bottom was constrained to 0).

[2] = test system: TNFα; test: Human PBMC LPS TNFα assay; assay type: cell-based; details: hPBMC, LPS stimulation, read-out: IRAK4 hPBMC LPS TNF-α inhibition: Average external-IC50
Method: Human PBMC LPS TNFα assay. Frozen PBMCs were thawed into RPMI with 10% FBS/1% penicillin/streptomycin and same day plated into 96 well plates at 200,000 PBMC/[…] media per well. Compound plates were prepared in DMSO with D300 cassette as 8-point dose curves in duplicate, starting dose 2 μM, 5-fold. Compounds are added 200 nL into cells for final 200 μL per well. Compound and cells were incubated at 37° C., 5% CO2 for 20 hours. After twenty hours of pretreatment with the compounds, LPS (01 1 1:B4) (Sigma #L2637) was added at 100 ng/ml final concentration and PBMCs incubated an additional five hours at 37° C., 5% CO2. Following assay completion, PBMC plates were spun down at 2000 rpm for 10 minutes. 100 uL of supernatant was carefully removed and placed into a new 96 well Costar (#3879) plate and stored at −80° C. until further analysis. Meso scale Discovery (MSD) human V-plex assays were used to measure cytokine levels. On day of cytokine analysis, supernatant samples were thawed, diluted with V-plex diluent #2, and directly to MSD plates. Assay was further completed per standard manufacturer's protocol. Cytokine data was normalized to LPS stimulated and unstimulated controls. Prism Graphpad was used to generate IC50 using 4 parameter logistic regression curve, free-fit.

[3] = test system: TNFα; test: Human whole blood LPS TNFα assay; assay type: cell-based; details: 20 h pretreatment, LPS 5 h, read-out: IRAK4 human whole blood LPS TNFa inhibition: Average external-IC50
Method: Human Whole blood LPS TNFα assay. Whole blood was collected fresh and plated same day into 96 well plates at 180 μL per well. Compound plates were prepared in DMSO as 8-point dose curves in duplicate, starting dose 2 μM, 5-fold. Compounds are added 20 μL into blood for final 200 μL per well. Compound and cells were incubated at 37° C., 5% CO2 for 20 hours. After twenty hours of pretreatment with the compounds, LPS (01 1 1:B4) (Sigma #L2637) was added at 100 ng/ml final concentration and blood incubated an additional five hours at 37° C., 5% CO2. Following assay completion, whole blood plates were spun down at 2000 rpm for 15 minutes at 4° C. 50 μL of plasma was carefully removed and placed into a new 96 well Costar (#3879) plate and stored at −80° C. until further analysis. Meso scale Discovery (MSD) human V-plex assays were used to measure cytokine levels. On day of cytokine analysis, plasma samples were thawed, diluted with V-plex diluent #2, and directly to MSD plates. Assay was further completed per standard manufacturer's protocol. Cytokine data was normalized to LPS stimulated and unstimulated controls. Prism Graphpad was used to generate IC50 using 4 parameter logistic regression curve, free-fit.

[4] = test system: OCI-LY10; test: CTG Cell Viability Assay - OCI-LY10; assay type: cell-based, human; details: Homo sapiens, OCI-Ly10, 96 h, OCI-LY10, 4 days; read-out: CTG Cell Viability Assay - OCI-LY10: Average external-IC50
How it was run: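 OCI-LY10 cells exposed to 9-dose, 1:3 dilutions from 10 μM top (0.2% DMSO) for 4 days at 37° C, 5% CO2. Viability by CellTiter-Glo luminescence; IC50 from three-parameter logistic fit.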

[5] = molecular target: T1, IRAK4; test: IRAK4 degradation in human whole blood lymphocyte - flow cytometry; assay type: cell-based; details: read-out: IRAK4 degradation in whole blood lymphocyte-Flow cytometry: Average external Abs IC50
Method: as §1

[6] = molecular target: T1, IRAK4; test: IRAK4 MSD degradation in OCI-LY10; assay type: cell-based; details: MSD
How it was run: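 OCI-LY10 cells treated with 8-point 1:3 dilutions (top 1 to 10 μM final) for 4 to 24 h at 37° C. Lysate IRAK4 measured by MSD sandwich immunoassay (2H9 capture, Y279 detection, SULFO-TAG anti-rabbit). DC50 from three-parameter logistic fit.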

[7] = OCI-LY10, 4 hrs, read-out: IRAK4 MSD degradation in OCI-LY10 at 4 hrs: Average external-Abs DC50
[8] = OCI-LY10, 24 hrs, read-out: IRAK4 MSD degradation in OCI-LY10 at 24 hrs: Average external-Abs DC50

T1 sequence (Q9NWZ3 whole entry): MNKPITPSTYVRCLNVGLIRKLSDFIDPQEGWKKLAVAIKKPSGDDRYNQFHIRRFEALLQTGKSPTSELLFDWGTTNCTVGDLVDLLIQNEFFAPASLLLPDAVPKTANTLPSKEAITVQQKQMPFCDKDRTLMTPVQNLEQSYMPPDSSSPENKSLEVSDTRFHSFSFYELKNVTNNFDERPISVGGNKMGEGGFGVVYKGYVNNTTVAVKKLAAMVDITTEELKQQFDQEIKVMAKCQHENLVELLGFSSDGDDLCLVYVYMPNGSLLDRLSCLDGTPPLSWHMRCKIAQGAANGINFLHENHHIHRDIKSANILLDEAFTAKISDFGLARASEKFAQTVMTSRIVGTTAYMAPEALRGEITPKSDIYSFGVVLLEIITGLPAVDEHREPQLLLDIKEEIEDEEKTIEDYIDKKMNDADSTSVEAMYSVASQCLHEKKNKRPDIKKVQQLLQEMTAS

| SMILES | IC50 [1] | IC50 [2] | IC50 [3] | IC50 [4] | DC50 [5] | DC50 [6, 7] | DC50 [1] | DC50 [6, 8] |
| --- | --- | --- | --- | --- | --- | --- | --- | --- |
| Cn1c(=O)n(C2CCC(=O)NC2=O)c2cccc(CCCOC3CCN(C[C@H]4CC[C@H](n5cc(NC(=O)c6coc(-c7ccnc(NCC8CC8)c7)n6)c(C(F)F)n5)CC4)CC3)c21 (stereo partly drawn) [I-48] | < 50 nM | 100 to 500 nM | 100 to 500 nM | < 50 nM | < 50 nM | < 10 nM |  |  |
| Cn1c(=O)n(C2CCC(=O)NC2=O)c2ccc(CCCCOCCCCNC[C@H]3CC[C@H](n4cc(NC(=O)c5cnn6ccc(N7CCNCC7)nc56)c(C(F)F)n4)CC3)cc21 (stereo partly drawn) [I-42] | < 50 nM | 100 to 500 nM | > 1000 nM | > 1000 nM | < 50 nM | 10 to 100 nM |  |  |
| Cn1c(=O)n(C2CCC(=O)NC2=O)c2cccc(CCCOCCNC[C@H]3CC[C@H](n4cc(NC(=O)c5coc(-c6ccnc(NCC(F)(F)F)c6)n5)c(C(N)=O)n4)CC3)c21 (stereo partly drawn) [I-11] | < 50 nM | < 50 nM | > 1000 nM | > 1000 nM | < 50 nM | < 10 nM |  |  |
| Cn1c(=O)n(C2CCC(=O)NC2=O)c2cccc(CCCOCC3CN(C[C@H]4CC[C@H](n5cc(NC(=O)c6coc(-c7ccnc(NCC8CC8)c7)n6)c(C(F)F)n5)CC4)C3)c21 (stereo partly drawn) [I-65] | < 50 nM | < 50 nM | > 1000 nM | < 50 nM | 50 to 100 nM | < 10 nM |  |  |
| CN(CCOCCOCCCc1ccc2c(c1)oc(=O)n2C1CCC(=O)NC1=O)C[C@H]1CC[C@H](n2cc(NC(=O)c3coc(-c4ccnc(NCC5CC5)c4)n3)c(C(F)F)n2)CC1 (stereo partly drawn) [I-43] |  | 100 to 500 nM | 100 to 500 nM | > 1000 nM | 100 to 500 nM | 10 to 100 nM | 50 to 100 nM |  |
| CN(CCOCCOCCCc1cccc2c1n(C)c(=O)n2C1CCC(=O)NC1=O)C(=O)[C@H]1CC[C@H](n2cc(NC(=O)c3coc(-c4ccnc(NCC5CC5)c4)n3)c(C(F)F)n2)CC1 (stereo partly drawn) [I-32] | < 50 nM | 50 to 100 nM | > 1000 nM | 100 to 500 nM | 50 to 100 nM | < 10 nM |  |  |
| O=C1CCC(n2c3ccc(CCCOCCOCCNCC4CCC(n5cc(NC(=O)c6coc(-c7ccnc(NCC8CC8)c7)n6)c(C(F)F)n5)CC4)cc3c3cccnc32)C(=O)N1 (stereo not drawn) [I-47] |  | 100 to 500 nM | > 1000 nM | 100 to 500 nM | 100 to 500 nM | 10 to 100 nM | 500 to 1000 nM | 10 to 100 nM |
| CN(C[C@H]1CN(CCCc2ccc3c(c2)n(C)c(=O)n3C2CCC(=O)NC2=O)CCO1)C[C@H]1CC[C@H](n2cc(NC(=O)c3coc(-c4ccnc(NCC5CC5)c4)n3)c(C(F)F)n2)CC1 (stereo partly drawn) [I-34] | < 50 nM | 100 to 500 nM | 100 to 500 nM | > 1000 nM | < 50 nM | < 10 nM |  |  |
| O=C1CCC(N2C[C@H](c3cccc(C#CCN4CCO[C@@H](CNC[C@H]5CC[C@H](n6cc(NC(=O)c7coc(-c8ccnc(NCC9CC9)c8)n7)c(C(F)F)n6)CC5)C4)c3)OC2=O)C(=O)N1 (stereo partly drawn) [I-39] |  | 50 to 100 nM | 100 to 500 nM | 50 to 100 nM | 100 to 500 nM | 10 to 100 nM | 50 to 100 nM |  |
| Cn1c(=O)n(C2CCC(=O)NC2=O)c2cccc(CCCOCCOCCNC[C@H]3CC[C@H](n4cc(NC(=O)c5coc(-c6ccnc(NCC7CC7)c6)n5)c(C(F)F)n4)CC3)c21 (stereo partly drawn) [I-2] | < 50 nM | 100 to 500 nM | > 1000 nM | 100 to 500 nM | < 50 nM | 100 to 1000 nM |  |  |
| Cn1c(=O)n(C2CCC(=O)NC2=O)c2cccc(CCCN3CCO[C@H](CNC[C@H]4CC[C@H](n5cc(NC(=O)c6coc(-c7ccnc(NCC8CC8)c7)n6)c(C(F)F)n5)CC4)C3)c21 (stereo partly drawn) [I-37] | < 50 nM | < 50 nM | 100 to 500 nM | < 50 nM | < 50 nM | 10 to 100 nM |  |  |
| CN(C[C@@H]1CN(CCCc2ccc3c(c2)n(C)c(=O)n3C2CCC(=O)NC2=O)CCO1)C[C@H]1CC[C@H](n2cc(NC(=O)c3coc(-c4ccnc(NCC5CC5)c4)n3)c(C(F)F)n2)CC1 (stereo partly drawn) [I-36] | < 50 nM | 100 to 500 nM | 100 to 500 nM | 500 to 1000 nM | < 50 nM | 10 to 100 nM |  |  |
| Cn1c(=O)n(C2CCC(=O)NC2=O)c2cccc(CCCN3CCO[C@@H](CNC[C@H]4CC[C@H](n5cc(NC(=O)c6coc(-c7ccnc(NCC8CC8)c7)n6)c(C(F)F)n5)CC4)C3)c21 (stereo partly drawn) [I-38] | < 50 nM | < 50 nM | 100 to 500 nM | < 50 nM | 50 to 100 nM | < 10 nM |  |  |
| CN(C[C@H]1CN(CC#Cc2ccc3c(c2)n(C)c(=O)n3C2CCC(=O)NC2=O)CCO1)C[C@H]1CC[C@H](n2cc(NC(=O)c3coc(-c4ccnc(NCC5CC5)c4)n3)c(C(F)F)n2)CC1 (stereo partly drawn) [I-61] |  | 100 to 500 nM | > 1000 nM | 100 to 500 nM | 100 to 500 nM | 10 to 100 nM | 50 to 100 nM |  |
| Cn1c(=O)n(C2CCC(=O)NC2=O)c2ccc(CCCN3CCO[C@@H](CNC[C@H]4CC[C@H](n5cc(NC(=O)c6coc(-c7ccnc(NCC8CC8)c7)n6)c(C(F)F)n5)CC4)C3)cc21 (stereo partly drawn) [I-16] | < 50 nM | 100 to 500 nM | > 1000 nM | 100 to 500 nM | 50 to 100 nM | < 10 nM |  |  |
| CN(CCCOCCCc1ccc2c(c1)n(C)c(=O)n2C1CCC(=O)NC1=O)C[C@H]1CC[C@H](n2cc(NC(=O)c3coc(-c4ccnc(NCC5CC5)c4)n3)c(C(F)F)n2)CC1 (stereo partly drawn) [I-62] | < 50 nM | 100 to 500 nM | > 1000 nM | 50 to 100 nM | < 50 nM | < 10 nM |  |  |
| C=C(C)c1nn([C@H]2CC[C@H](C(=O)N(C)CCCOCCCc3cccc4c3n(C)c(=O)n4C3CCC(=O)NC3=O)CC2)cc1NC(=O)c1coc(-c2ccnc(NCC3CC3)c2)n1 (stereo partly drawn) [I-31] |  | 100 to 500 nM | > 1000 nM | 100 to 500 nM | 100 to 500 nM | 100 to 1000 nM | 50 to 100 nM |  |
| CN(CCCOCCCc1cccc2c1n(C)c(=O)n2C1CCC(=O)NC1=O)C[C@H]1CC[C@H](n2cc(NC(=O)c3cccc(C(F)(F)F)n3)c(C(F)F)n2)CC1 (stereo partly drawn) [I-44] |  | > 1000 nM | > 1000 nM | > 1000 nM |  | > 1000 nM |  | > 1000 nM |
